These results are taken from ChEMBL document CHEMBL5131558, “Fluorescent PARP Inhibitors Applied To Intracranial Glioblastoma: Accumulation and Persistence In Vivo” (ACS Med Chem Lett, 2022).

Data set [1] relates to U-87 MG. Nature of the data set: Cytotoxicity against human U87 cells assessed as reduction in cell viability incubated for 72 hrs by alamar blue assay. Format: functional, cell-based, U-87MG ATCC. On the technique in general: Resazurin is reduced to fluorescent resorufin, in cell work by metabolically active cells.
The nature of data set [2]: Drug uptake in tumor of mouse xenografted with human U87 MG cells assessed as increase in fluorescence signal at 25 nmol, iv measured after 24 hrs by […] imaging method. Format: ADME, organism-based, Neoplasm, U-87MG ATCC. As to conditions: in vivo; call rule not given here.
A short description of data set [3]: Drug uptake in liver of mouse xenografted with human U87 MG cells at 25 nmol, iv measured after 24 hrs by fluorescence imaging analysis. Format: ADME, organism-based, U-87MG ATCC. The conditions noted are these: in vivo.
For data set [4], the system named is MDA-MB-231. Nature of the data set: Cytotoxicity against human MDA-MB-231 cells assessed as reduction in cell viability incubated for 72 hrs by alamar blue assay. Format: functional, cell-based. The conditions noted are these: MDA-MB-231, 72 h.
The subject of data set [5] is MDA-MB-231. Nature of the data set: Inhibition of PARP production in human MDA-MB-231 cells preincubated for 24 hrs followed by H2O2 addition and measured over 15 mins. The conditions noted are these: dose 0.001-10 µM, time 1455.0 min, DDE = dose-dependent effect. Format: cell-based.
The test system of data set [6] is U-87 MG. Nature of the data set: Cytotoxicity against human U87 cells assessed as reduction in cell viability incubated for 72 hrs in presence of rAOC-Rib by alamar blue assay. Format: functional, cell-based, U-87MG ATCC.
Data set [7] is described as follows: Half life of the compound. Format: physicochemical.
Data set [8] concerns U87. Nature of the data set: Inhibition of PARP production in human U87 cells preincubated for 24 hrs followed by H2O2 addition and measured over 15 mins. Format: cell-based. The conditions noted are these: dose 0.1-10 µM, time 1455.0 min, DDE = dose-dependent effect.

SMILES strings stand for the structures.

A word on the IC50: it is the midpoint of a concentration-inhibition curve. For the molecule `CN(Cc1ccc(-c2[nH]c3cc(F)cc4c3c2CCNC4=O)cc1)C(=O)CCCCCN1/C(=C/C=C2\CCCC(/C=C/C3=[N+](CCCCCC(=O)O)c4ccccc4C3(C)C)=C2Cl)C(C)(C)c2ccccc21`, the half-inhibitory concentration (IC50) in data set [1] was 15 µM; in data set [4] it was 13 µM. For the same molecule, the Drug uptake result in data set [2] and in data set [3] was “Active” each time. In addition, the inhibition result in data set [5] was “Dde”.

For `CN(CCCCCCCCN)Cc1ccc(-c2[nH]c3cc(F)cc4c3c2CCNC4=O)cc1`, the concentration for half-maximal inhibition (IC50) in data set [1] was 79 µM.

For `CNCc1ccc(-c2[nH]c3cc(F)cc4c3c2CCNC4=O)cc1` [RUCAPARIB], the IC50 in data set [1] was determined as 20 µM; in data set [4], 39 µM.

A word on the half-life: it is how long it takes for the measured level to halve. A high value points to slow loss. In the case of `CC1(C)C(/C=C/C2=C(Cl)C(=C/C=C3/N(CCCCCC(=O)O)c4ccccc4C3(C)C)/CCC2)=[N+](CCCCCC(=O)O)c2ccccc21`, the half-maximal inhibitory concentration (IC50) amounted to 27 µM in data set [1] and 28 µM in data set [6]. In data set [7], this molecule registered a half-life of 30 min.

For the molecule `CN(Cc1ccc(-c2[nH]c3cc(F)cc4c3c2CCNC4=O)cc1)C(=O)CCCCCCCNC(=O)CCCCCN1/C(=C/C=C2\CCCC(/C=C/C3=[N+](CCCCCC(=O)O)c4ccccc4C3(C)C)=C2Cl)C(C)(C)c2ccccc21`, the concentration for half-maximal inhibition (IC50) in data set [1] worked out at 12 µM. Moreover, the inhibition entry in data set [8] was “Dde”.
